Experimental data taken from the Kinase Knowledgebase extract (Sharma et al. 2016).

Tests used:
[1] = target: CDK2 (Human) (UniProt P24941); assay: Enzyme Assay
[2] = target: CDK2 (Human) (UniProt P24941); assay: Enzyme Assay; remark: listed apart in the source

Structure (SMILES)	IC50 [1]	IC50 [2]
CC(C)[C@H](CO)Nc1nc(Nc2cccc(Cl)c2)c2ncn(C(C)C)c2n1	503 nM	204 nM
O=C1Nc2ccc3ncsc3c2/C1=C/c1cnc[nH]1	94 nM	135 nM
Cn1cc(C2=C(c3cn(CCCSC(=N)N)c4ccccc34)C(=O)NC2=O)c2ccccc21	147 nM	318 nM
O=C1NC(=O)c2c1c1c3ccccc3n3c1c1c2c2ccccc2n1C1CCC3O1	283 nM	871 nM
CC(C)n1cnc2c(NCc3ccccc3O)nc(NCCCO)nc21	1210 nM	506 nM
O=C1Nc2ccc(I)cc2/C1=C1/Nc2ccccc2/C1=N\O	1520 nM	379 nM

Further lines, results first:

IC50 [1]	IC50 [2]	Structure (SMILES)
216 nM	333 nM	N#CCCc1ccc2c(c1)-c1[nH]c3ccc([N+](=O)[O-])cc3c1CC(=O)N2
78300 nM	787 nM	CC(=O)O/N=C1/C(=C2/C(=O)Nc3cc(Br)ccc32)Nc2ccccc21
> 25000 nM	> 25000 nM	COc1cc(Nc2ncc3ccn(-c4cccc(CCC#N)c4)c3n2)cc(OC)c1OC
	1280 nM	NC1=NC(=O)/C(=C2\CCNC(=O)c3[nH]c4ccccc4c32)N1
3910 nM	24500 nM	CCCCCCCCCCCCCCCCn1cc[n+](Cc2ccccc2)c1C
	930 nM	O=C1Nc2ccccc2C1=C1Nc2ccccc2C1=NOCCC(O)CO (stereo not drawn)
67 nM	141 nM	CC(C)c1[nH]n(-c2c(Cl)cccc2Cl)c2nc(Cc3ccc(OCCO)cc3)nc(=O)c1-2
6470 nM	4490 nM	CCN(CC)C(=O)c1ccc(Nc2nc(OCC3CCCCC3)c3[nH]cnc3n2)cc1
168 nM	278 nM	Cc1ccc([N+](=O)[O-])cc1S(=O)(=O)N(C)/N=C/c1cnc2ccc(Br)cn12
